Where two headings read alike, the source gives them in different places.
Columns and labels:
Format in all cases: cell-based
[1] = test system: PC3 cells; assay: PC3 cell viability, CellTitreGlo Assay, 72 hrs; conditions: Homo sapiens, PC-3
Method: (§1) Table 2. Biological data of selected compounds. For IC50 determination. PC3 and PC12 cells were treated with increasing concentrations of the indicated compounds for 72 hrs and cell viability assessed using CellTitreGlo Assay (Promega). For MYC and ATF4 protein level determination. PC3 cells were treated with the indicated compounds for 24 hr sand cell lysates processed for western blot with MYC and ATF4 antibodies using Actin as a control. Quantification analyses were performed by Biorad ChemiDoc Imager and Bio-Rad Image Lab software.

[2] = target: T1, MYC (Homo sapiens, UniProt P01106); assay: MYC protein level in PC3 cells by western blot, 24 hr; conditions: Actin control; for remaining activity at 10 µM: read-out: Relative MYC protein at 10 μM (%, PC3 24 h)
T1 construct: endogenous in cells; host or cells: PC3 cells
T1 sequence (P01106 whole entry): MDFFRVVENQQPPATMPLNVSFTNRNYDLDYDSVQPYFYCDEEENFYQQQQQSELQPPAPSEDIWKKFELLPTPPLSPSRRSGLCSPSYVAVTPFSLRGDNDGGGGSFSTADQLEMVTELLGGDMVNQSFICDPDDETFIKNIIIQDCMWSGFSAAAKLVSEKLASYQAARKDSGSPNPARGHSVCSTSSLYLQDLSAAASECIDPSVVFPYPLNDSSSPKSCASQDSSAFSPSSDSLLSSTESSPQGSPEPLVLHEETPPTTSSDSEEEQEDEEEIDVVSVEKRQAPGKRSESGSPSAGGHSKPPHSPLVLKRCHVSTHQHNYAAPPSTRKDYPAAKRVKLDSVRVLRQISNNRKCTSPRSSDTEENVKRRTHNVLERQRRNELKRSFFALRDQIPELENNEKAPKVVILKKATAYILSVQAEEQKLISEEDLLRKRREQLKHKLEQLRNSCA
Method: as §1

[3] = test system: ATF4; assay: ATF4 protein level in PC3 cells by western blot, 24 hr; conditions: Actin control; for fold induction at 10 µM: Homo sapiens, PC-3, PC3, 24 h, read-out: Relative ATF4 protein at 10 μM (fold change, PC3 24 h)
Method: as §1

Row | IC50 [1] [µM] | remaining activity at 10 µM ([2]; PC-3, 24 h, PC3, 24 h) [%] | Relative MYC protein at 10 μM (%, PC3 24 h) [2] [%] | SMILES | fold induction at 10 µM [3] | remaining activity at 10 µM ([2]; PC-3, PC3, 24 h) [%] | Relative ATF4 protein at 10 μM (fold change, PC3 24 h) [3] [fold change]
1 | 10.1 | 84.2 |  | Cn1nc(C(F)(F)F)cc1-c1ccc(OCCCCCOCCOCCOc2cccc3c2C(=O)N(C2CCC(=O)NC2=O)C3=O)c(-c2ccc(Cl)c(C(F)(F)F)c2)c1O (centres unmarked) [NUCC-0226224] | 8.1 |  | 
2 | 10.9 | 24 |  | Cc1ncsc1-c1ccc(CNC(=O)[C@@H]2C[C@@H](O)CN2C(=O)[C@@H](NCCOCCNC(=O)CCOCCCOc2ccc(-c3cc(C(F)(F)F)nn3C)c(O)c2-c2ccc(Cl)c(C(F)(F)F)c2)C(C)(C)C)cc1 [NUCC-0226303] | 1.6 |  | 
3 | 7.3 | 32.5 |  | Cn1nc(C(F)(F)F)cc1-c1ccc(OCc2ccc(Cl)cc2)c(-c2ccc(F)c(F)c2)c1O [NUCC-0226504] | 5.2 |  | 
4 |  | 52 |  | Cn1nc(C(F)(F)F)cc1-c1ccc(O)c(-c2ccc(Cl)c(C(F)(F)F)c2)c1O [NUCC-0226259] | 3.3 |  | 
5 | 40.9 | 67.8 |  | Cn1nc(C(F)(F)F)cc1-c1ccc(OCc2ccc(Cl)cc2)c(-c2cccc(F)c2)c1O [NUCC-0226498] | 4.8 |  | 
6 |  | 70 |  | Cc1ncsc1-c1ccc(CNC(=O)[C@@H]2C[C@@H](O)CN2C(=O)[C@@H](NCCOCCOc2ccc(COc3ccc(-c4cc(C(F)(F)F)nn4C)c(O)c3-c3ccc(Cl)c(C(F)(F)F)c3)cc2)C(C)(C)C)cc1 [NUCC-0226276] | 0.4 |  | 
7 |  | 90.6 |  | Cn1nc(C(F)(F)F)cc1-c1ccc(OCCCCCNC(=O)[C@H](CCCN=C(NC(=O)OC(C)(C)C)NC(=O)OC(C)(C)C)NC(=O)OC(C)(C)C)c(-c2ccc(Cl)c(C(F)(F)F)c2)c1O [NUCC-0226219] |  |  | 
8 |  | 102 |  | Cc1ncsc1-c1ccc(CNC(=O)[C@@H]2C[C@@H](O)CN2C(=O)[C@@H](NC(=O)C2(F)CC2)C(C)(C)C)c(OCCOCCOCCCCCOc2ccc(-c3cc(C(F)(F)F)nn3C)c(O)c2-c2ccc(Cl)c(C(F)(F)F)c2)c1 [NUCC-0226264] | 1.3 |  | 
9 | 6 | 54.2 |  | Cn1nc(C(F)(F)F)cc1-c1ccc(N(CCCOCCC(=O)NCCOCCNc2cccc3c2C(=O)N(C2CCC(=O)NC2=O)C3=O)C(=O)c2ccc(Cl)c(C(F)(F)F)c2)cc1O (centres unmarked) [NUCC-0226288] | 6.6 |  | 
10 | 8.4 | 52.4 |  | CC(C)Cc1ccc(COc2ccc(-c3cc(C(F)(F)F)nn3C)c(O)c2-c2ccc(Cl)c(C(F)(F)F)c2)cc1 [NUCC-0226305] | 2.9 |  | 
11 | 3.88 | 43.7 |  | Cn1nc(C(F)(F)F)cc1-c1ccc(Cc2ccc(Cl)cc2)c(-c2ccc(Cl)c(C(F)(F)F)c2)c1O [NUCC-0226566] | 10.5 |  | 
12 |  | 91.8 |  | Cc1ncsc1-c1ccc(CNC(=O)[C@@H]2C[C@@H](O)CC2C(=O)[C@@H](NCCOCCOCCOCCCCCOc2ccc(-c3cc(C(F)(F)F)nn3C)c(O)c2-c2ccc(Cl)c(C(F)(F)F)c2)C(C)(C)C)cc1 (some centres unmarked) [NUCC-0226266] | 1.7 |  | 
13 | 3.4 | 30.3 |  | Cc1ccc([C@@H](C)Oc2ccc(-c3cc(C(F)(F)F)nn3C)c(O)c2-c2ccc(Cl)c(C(F)(F)F)c2)cc1 [NUCC-0226436] | 11.8 |  | 
14 |  | 52.9 |  | COCCOCCCN(C(=O)c1ccc(C(F)(F)F)c(Cl)c1)c1ccc(-c2cc(C(F)(F)F)nn2C)c(O)c1 [NUCC-0226268] | 5.4 |  | 
15 | 5.4 | 50.7 |  | CC(C)Cc1ccc([C@@H](C)Oc2ccc(-c3cc(C(F)(F)F)nn3C)c(O)c2-c2ccc(Cl)c(C(F)(F)F)c2)cc1 [NUCC-0226437] | 9 |  | 
16 | 15.6 | 56.4 |  | Cn1nc(C(F)(F)F)cc1-c1ccc(N(CCCOCCC(=O)NCCCCCCOc2cccc3c2C(=O)N(C2CCC(=O)NC2=O)C3=O)C(=O)c2ccc(Cl)c(C(F)(F)F)c2)cc1O (centres unmarked) [NUCC-0226229] | 16.4 |  | 
17 |  | 93.1 |  | O=c1oc2c(-c3ccc(Cl)c(C(F)(F)F)c3)c(O)ccc2c2cc(C(F)(F)F)nn12 [NUCC-0226261] | 4.4 |  | 
18 | 4.6 | 46.4 |  | COCCCN(C(=O)c1ccc(C(F)(F)F)c(Cl)c1)c1ccc(-c2cc(C(F)(F)F)nn2C)c(O)c1 [NUCC-0226267] | 8 |  | 
19 |  |  | 103 | Cn1nncc1-c1ccc(OCc2ccc(Cl)cc2)c(-c2ccc(Cl)c(C(F)(F)F)c2)c1O [NUCC-0226656] |  |  | 1.5
20 |  | 105 |  | Cn1nc(C(F)(F)F)cc1-c1ccc(N(CCCOCCC(=O)NCCCCNC(=O)COc2cccc3c2C(=O)N(C2CCC(=O)NC2=O)C3=O)C(=O)c2ccc(Cl)c(C(F)(F)F)c2)cc1O (centres unmarked) [NUCC-0226230] | 1.9 |  | 
21 |  | 85.1 |  | Cn1nc(C(F)(F)F)cc1-c1ccc(OCc2ccc(OCCOCCOc3cccc4c3C(=O)N(C3CCC(=O)NC3=O)C4=O)cc2)c(-c2ccc(Cl)c(C(F)(F)F)c2)c1O (centres unmarked) [NUCC-0226279] | 2.1 |  | 
22 |  | 90.1 |  | Cc1ncsc1-c1ccc(CNC(=O)[C@@H]2C[C@@H](O)CN2C(=O)[C@@H](NC(=O)C2(F)CC2)C(C)(C)C)c(OCCOCCOCCOCCCCCOc2ccc(-c3cc(C(F)(F)F)nn3C)c(O)c2-c2ccc(Cl)c(C(F)(F)F)c2)c1 [NUCC-0226220] |  |  | 

The next lines start with the compound.

Row | SMILES | IC50 [1] [µM] | remaining activity at 10 µM ([2]; PC-3, 24 h, PC3, 24 h) [%] | Relative MYC protein at 10 μM (%, PC3 24 h) [2] [%] | fold induction at 10 µM [3] | remaining activity at 10 µM ([2]; PC-3, PC3, 24 h) [%] | Relative ATF4 protein at 10 μM (fold change, PC3 24 h) [3] [fold change]
23 | Cn1nc(C(F)(F)F)cc1-c1ccc(NC(c2ccccc2)c2ccccc2)c(-c2ccc(Cl)c(C(F)(F)F)c2)c1O [NUCC-0226502] | 14.1 | 122 |  | 1.4 |  | 
24 | Cn1nc(C(F)(F)F)cc1-c1ccc(N)c(-c2ccc(Cl)c(C(F)(F)F)c2)c1O [NUCC-0226520] | 12.7 | 67.5 |  | 1.1 |  | 
25 | Cn1nc(C(F)(F)F)cc1-c1ccc(OCCCOCCC(=O)NCCOCCOCCNc2cccc3c2C(=O)N(C2CCC(=O)NC2=O)C3=O)c(-c2ccc(Cl)c(C(F)(F)F)c2)c1O (centres unmarked) [NUCC-0226304] |  | 170 |  | 4.6 |  | 
26 | CC(C)Cc1ccc(C(C)Oc2ccc(-c3cc(C(F)(F)F)cn3C)c(O)c2-c2ccc(Cl)c(C(F)(F)F)c2)cc1 (centres unmarked) [NUCC-0226438] | 5.3 | 52.3 |  | 3.7 |  | 
27 | Cc1ncsc1-c1ccc(CNC(=O)[C@@H]2C[C@@H](O)CN2C(=O)[C@@H](NC(=O)C2(F)CC2)C(C)(C)C)c(OCCOCCOCCOCCOCCCCCOc2ccc(-c3cc(C(F)(F)F)nn3C)c(O)c2-c2ccc(Cl)c(C(F)(F)F)c2)c1 [NUCC-0226221] |  | 85.9 |  |  |  | 
28 | Cn1nc(C(F)(F)F)cc1-c1ccc(OCc2ccccc2)c(-c2ccc(Cl)c(C(F)(F)F)c2)c1O [NUCC-0226260] |  |  |  | 4.6 | 41.5 | 
29 | CC(C)Cc1ccc(CN(C(=O)c2ccc(Cl)c(C(F)(F)F)c2)c2ccc(-c3cc(C(F)(F)F)nn3C)c(O)c2)cc1 [NUCC-0226280] |  | 45.2 |  | 10.3 |  | 
30 | CC(=O)Oc1c(-c2cc(C(F)(F)F)nn2C)ccc(OCc2ccc(OCCOCCOS(=O)(=O)c3ccc(C)cc3)cc2)c1-c1ccc(Cl)c(C(F)(F)F)c1 [NUCC-0226263] |  | 113 |  | 0.7 |  | 
31 | C[C@H](Oc1ccc(-c2cc(C(F)(F)F)nn2C)c(O)c1-c1ccc(Cl)c(C(F)(F)F)c1)c1ccccc1 [NUCC-0226434] | 4.3 | 20 |  | 9.4 |  | 
32 | CC(C)n1nc(C(F)(F)F)cc1-c1ccc(OCc2ccc(Cl)cc2)c(-c2ccc(Cl)c(C(F)(F)F)c2)c1O [NUCC-0226657] | 7.51 | 56.6 |  | 7.7 |  | 
33 | Cn1nc(C(F)(F)F)cc1-c1ccc(N(CCCOCCC(=O)NCCOCCOCCOCCNc2cccc3c2C(=O)N(C2CCC(=O)NC2=O)C3=O)C(=O)c2ccc(Cl)c(C(F)(F)F)c2)cc1O (centres unmarked) [NUCC-0226289] | 7.4 | 120 |  | 7 |  | 
34 | Cc1ncsc1-c1ccc(CNC(=O)[C@@H]2C[C@@H](O)CN2C(=O)[C@@H](NCCOCCOCCCCCOc2ccc(-c3cc(C(F)(F)F)nn3C)c(O)c2-c2ccc(Cl)c(C(F)(F)F)c2)C(C)(C)C)cc1 [NUCC-0226265] |  | 115 |  | 2.2 |  | 
35 | Cc1ncsc1-c1ccc(CNC(=O)[C@@H]2C[C@@H](O)CN2C(=O)[C@@H](NC(=O)C2(F)CC2)C(C)(C)C)c(OCCOCCOc2ccc(COc3ccc(-c4cc(C(F)(F)F)nn4C)c(O)c3-c3ccc(Cl)c(C(F)(F)F)c3)cc2)c1 [NUCC-0226277] |  | 97.6 |  | 1.6 |  | 
36 | Cn1nc(C(F)(F)F)cc1-c1ccc(OCc2ccc(OCCOCCNC(=O)COc3cccc4c3C(=O)N(C3CCC(=O)NC3=O)C4=O)cc2)c(-c2ccc(Cl)c(C(F)(F)F)c2)c1O (centres unmarked) [NUCC-0226302] |  | 79.4 |  | 2 |  | 
37 | CC(=O)Oc1c(-c2cc(C(F)(F)F)nn2C)ccc(OCc2ccccc2)c1-c1ccc(Cl)c(C(F)(F)F)c1 [NUCC-0226258] |  | 56.4 |  | 5.8 |  | 
38 | Cn1nncc1-c1ccc(OCc2ccc(Cl)cc2)c(-c2ccc(Cl)c(C(F)(F)F)c2)c1O [NUCC-0226659] |  | 90.3 |  | 1.5 |  | 
39 | Cn1nc(C(F)(F)F)cc1-c1ccc(OCc2ccc(Cl)cc2)c(-c2ccc(F)cc2)c1O [NUCC-0226503] |  | 129 |  | 3 |  | 
